Data as given in US6485742B1, “Process for producing coated preparation and its use” (BASF Aktiengesellschaft, priority 1999, dated 2002).

Assay: Change in appearance (browning) of filled gelatin capsules on storage
Format: physicochemical
Conditions: 0.4 g in gelatin capsules, sealed glass bottle, 40° C. for 30 days
Protocol: Each (0.4 g) of calcium L-ascorbate and the coated calcium L-ascorbate (70% L-ascorbate content) produced in Example 4 was filled in gelatin capsules (manufactured by Warner-Lambert Company, body volume 0.68 ml) and the capsules were placed in a transparent glass bottle. The bottle was sealed and stored in an incubator at 40° C. for 30 days to observe the change in appearances.

calcium L-ascorbate
Browning of filled gelatin capsules (change in appearance): severe browning
